From US20140024683A1, “CHLORIDE CHANNEL AND CHLORIDE TRANSPORTER MODULATORS FOR THERAPY IN SMOOTH MUSCLE DISEASES” (priority 2011, published 2014)

Columns and labels:
[1] = tested on: guinea pig tracheal rings; assay: Attenuation of the initiation of an acetylcholine contraction by pretreatment, guinea pig tracheal rings; conditions: pretreatment with single agent alone
Protocol: (§1) Animal protocols were approved by the Columbia University Animal Care and Use Committee. Male Hartley guinea pigs weighing approximately 400 g were anesthetized with intraperitoneal injection of sodium pentobarbital (100 mg/kg). Trachea were removed and transferred to ice cold Krebs-Henseleit (KH) buffer of the following composition (in mM): NaCl 118, KCl 5.6, CaCl2 0.5, MgSO4 0.24, NaH2PO4 1.3, NaHCO3 25, glucose 5.6, pH 7.4. Epithelial-denuded tracheal rings were prepared using a dissecting microscope. Epithelium was removed by gently passing cotton fibers through the lumen of the tracheal rings. The rings were suspended in 4 mL-water jacketed organ baths (37° C.: Radnoti Glass Technology, Monrovia, Calif.) and connected to a Grass FT03 force transducer (Grass Telefactor, West Warwick, R.I.) using silk sutures. The transducers were coupled to the computer with BioPac hardware and data was collected using Acqknowledge 7.3.3 software (BioPac Systems, Goleta, Calif.). KH buffer was bubbled with a gas mixture of 95% oxygen and 5% carbon dioxide and buffer was exchanged every 15 minutes for 1 hour during equilibration of tracheal rings at 1 g resting tension. […].
Compounds 1 and 13 were tested for their abilities to attenuate the initiation phase of an acetylcholine contraction, as acetylcholine is a natural bronchoconstrictor and prevention of contraction would have clinical utility. […]

[2] = tested on: guinea pig tracheal rings; assay: Relaxation of the maintenance phase of a pre-established acetylcholine contraction, guinea pig tracheal rings; conditions: alone; pre-contracted with EC50 acetylcholine
Protocol: as §1
Chloride channel blockers were then tested against the plateau phase of an established acetylcholine contraction. […]

[3] = tested on: guinea pig tracheal rings; assay: Potentiation of isoproterenol relaxation of acetylcholine contraction, guinea pig tracheal rings; conditions: 10 μM bumetanide
Protocol: as §1
Therefore, we tested whether the chloride channel blockers or modulation of chloride flux could be used in combination with β-agonists to potentiate their effects. […]. Therefore, a combination of treatment with compound 13 and bumetanide potentiated the relaxation effect of isoproterenol.

[4] = tested on: human airway smooth muscle cells; assay: FLIPR potentiometric dye membrane potential assay (Examples 9, 12); type: cell-based; conditions: 100 μM
Protocol: To determine whether blockade of CaCCs or NKCCs induce membrane potential changes in cultured human airway smooth muscle cells, the FLIPR in vitro fluorescent dye assay (Molecular Devices) was used as described by Wafford et al. (2009). Briefly, human airway smooth muscle cells were grown to 100% confluence in 96-well black-walled plates and were washed with warmed (37° C.) normal-chloride buffer [consisting of (in mM) 130 sodium chloride, 2 CaCl2, 1 MgCl2, 10 D-glucose, and 10 HEPES, pH 7.4] four times. A stock solution (100% dye) of FLIPR blue dye (Molecular Devices) was prepared by reconstitution of 1 vial (125 mg) with 100 ml of the normal-chloride buffer (assay buffer). A 50% working stock was prepared by further diluting the reconstituted blue dye 1:1 with assay buffer and was used to load cells (90 μl/well) over 20 minutes at 37° C. All reagents were dissolved in assay buffer. Baseline fluorescence was measured for 3 minutes prior to the first control additions (assay buffer). […] The fluorescence produced by membrane potential change following solution additions was quantified after subtracting changes induced by assay buffer alone.

[5] = tested on: human airway smooth muscle cells; assay: Whole cell current clamp recording of membrane potential; type: cell-based
Protocol: Induced electrophysiological changes in membrane potential and current were measured using traditional whole cell patch clamp methods. Immortalized human airway smooth muscle cells were grown to confluence on collagen-treated T25 flasks. Collagenase type IV in SmBM2 medium (Lonza, Walkersville, Md.) was used to release cells adherent to the collagen matrix in the flask. Medium with cells in suspension was then harvested in a 10-ml conical tube and centrifuged at 300×g. Supernatant was removed, and the pellet was resuspended in SmBM2 medium and transferred into collagen-treated glass bottom 1-cm Petri dishes at about 10% confluence. Each dish was then incubated at 37° C. and 5% CO2 for 1-4 hours for reattachment of cells to glass-bottom Petri dishes.
Glass-bottom dishes served as a disposable recording chamber. ALA VM-8, an 8-chamber pressure-driven drug application system, was used in a still bath of extracellular salt solution. Whole-cell intracellular voltage recordings under current clamp conditions were performed with a 2-kHz Bessel filter, recording at 10 kHz using an Axopatch 200b amplifier (Axon Instruments, Foster City, Calif., USA). Electrodes were pulled using a P-97 micropipette puller from 1.5-mm OD borosilicate capillary glass (Sutter Instruments, Novato, Calif., USA). Glass electrode resistances ranged from 5 to 10 MO with intracellular solution. Whole-cell intracellular current recordings under voltage-clamp conditions were performed with a 2-kHz Bessel filter, recording at 10 kHz using an Axopatch 200b amplifier. For current measurements (FIG. 11) intracellular solutions consisted of (in mM) 140 TEA-Cl, 5 MgATP, 5 EGTA, 1 MgCl2, 10 HEPES, and 5 CaCl2 (pH 7.2). Extracellular solution consisted of (in mM) 134 NaCl, 1.4 KCl, 10 HEPES, 1 MgCl2, 1.8 CaCl2, and 10 glucose (pH 7.4). This induced the classic spontaneously transient inward currents (STICs) and spontaneously transient outward currents (STOCs) well described in this cell type. STOCs are believed to represent activation of calcium activated potassium (KCa) channels while STICs are believed to represent activation of CaCCs. TEA-Cl was included in the buffer to enhance STICs which were then recorded during the addition of 100 μM niflumic acid. When recording TEA- and niflumic acid-induced responses on membrane potential (ΔmV), the intracellular solutions contained (in mM) 140 KCl, 5 MgATP, 5 EGTA, 1 MgCl2, 10 HEPES, and 5 CaCl2 (pH 7.2), and the extracellular solutions consisted of (in mM) 134 NaCl, 5 MgATP, 5 EGTA, 1 MgCl2, 10 HEPES, and 5 CaCl2 (pH 7.2). All recordings were analyzed on Clampfit 8.0 software (Molecular Devices).

CCCCNc1cc(C(=O)O)cc(S(N)(=O)=O)c1Oc1ccccc1 [bumetanide]
attenuation of the initiation of an acetylcholine contraction [1]: failed to significantly attenuate a contraction
relaxation of established acetylcholine contraction [2]: significantly relaxed an acetylcholine contraction
shift of the EC50 of isoproterenol [3]: 2.4 fold

O=C(O)c1cccnc1Nc1cccc(C(F)(F)F)c1 [niflumic acid]
membrane potential change (FLIPR) [4]: hyperpolarized the cell membrane
membrane potential change (FLIPR) ([4]; listed as NFA): hyperpolarizes the airway smooth muscle cell plasma membrane
membrane potential (whole cell current clamp) ([5]; 100 μM niflumic acid): hyperpolarizes the plasma membrane
membrane potential (whole cell current clamp) after depolarization ([5]; following depolarization with TEA chloride): reverses membrane potential
